Test results published in article PMC8588467, “Rational Design 2-Hydroxypropylphosphonium Salts as Cancer Cell Mitochondria-Targeted Vectors: Synthesis, Structure, and Biological Properties” (Molecules, 2021).
Where two headings read alike, the source gives them in different places.

Key:
[1] = system: HuTu 80 (human duodenal adenocarcinoma); assay: MTT cytotoxicity, HuTu 80; format: cell-based; details: for IC50: mean ± SD, triplicate; for SI HuTu 80: IC50 normal cells (WI38) / IC50 cancer cells, ns = no selectivity
[2] = system: A549 (human lung carcinoma); assay: MTT cytotoxicity, A549; format: cell-based; details: for IC50: mean ± SD, triplicate; for SI A549: IC50 normal cells (WI38) / IC50 cancer cells, ns = no selectivity
[3] = system: PC3 (human prostate adenocarcinoma); assay: MTT cytotoxicity, PC3; details: for IC50: mean ± SD, triplicate; for SI PC3: IC50 normal cells (WI38) / IC50 cancer cells, ns = no selectivity
[4] = system: T98G glioblastoma cell line; assay: MTT cytotoxicity, T98G; format: cell-based, human; details: for IC50: MTT, mean ± SD, triplicate; for SI T98G: IC50 normal cells (WI38) / IC50 cancer cells, ns = no selectivity
[5] = system: MCF-7 (human breast adenocarcinoma); assay: MTT cytotoxicity, MCF-7; format: cell-based; details: for IC50: mean ± SD, triplicate; for SI MCF-7: IC50 normal cells (WI38) / IC50 cancer cells, ns = no selectivity
[6] = system: M-HeLa (human cervix epitheloid carcinoma); assay: MTT cytotoxicity, M-HeLa; format: cell-based; details: for IC50: MTT, mean ± SD, triplicate; for SI M-HeLa: IC50 normal cells (WI38) / IC50 cancer cells, ns = no selectivity
HuTu-80 cells [7] = assay: Mitochondrial membrane potential, JC-10 flow cytometry; format: cell-based, human; details: for % cells with J-aggregate (red, high membrane potential) / % cells with J-monomer (green, decreased membrane potential): JC-10; for effect on mitochondrial membrane potential: more pronounced with increase of concentration up to IC50
Description: Apoptosis induction by 3a, b, k, j and 4c through the mitochondrial pathway and HuTu-80 cell line was studied by flow cytometry using the fluorescent dye JC-10 from the Mitochondria Membrane Potential Kit. JC-10 accumulated in the mitochondrial matrix and formed aggregates (J-aggregate) with red fluorescence in normal cells with a high mitochondrial membrane potential. The membrane potential decreased in apoptotic cells. JC-10 started to diffuse out from the mitochondria and converts to the monomeric form (J-monomer) and emits green fluorescence. This is recorded with a flow cytometer. […] The process became more pronounced with an increase of 3a, b, 3k, j and 4c concentrations up to IC50 (Figure 5 and Figure 6).
Cells were harvested at 2000 rpm for 5 min and then washed twice with ice-cold PBS, followed by resuspension in JC-10 (10 µg/mL) and incubation at 37 °C for 10 min. After the cells were rinsed three times and suspended in PBS, the JC-10 fluorescence was observed by flow cytometry (Guava easy Cyte, MERCK, NJ, USA).

HuTu-80 cells [8] = assay: Intracellular ROS production, CellROX Deep Red flow cytometry; format: cell-based, human; details: control 600
Description: Increasing the production of reactive oxygen species (ROS) by compounds characterizes the mitochondrial apoptotic pathway. Mitochondria are a potential source and target of ROS. ROS lead to disruption of mitochondrial functions and, as a consequence, to irreversible cell damage. In this regard, the effect of test compounds in HuTu-80 cells on ROS production, using flow cytometry analysis and CellROX® Deep Red flow cytometry kit was investigated. Data presented in Figure 7 show a significant increase in CellROX® Deep Red fluorescence intensity. This indicates an increase in ROS production in the presence of the tested compounds.
ROS generation was investigated using flow cytometry assay and CellROX® Deep Red flow cytometry kit. For this HuTu 80 cells were harvested at 2000 rpm for 5 min and then washed twice with ice-cold PBS, followed by resuspension in 0.1 mL of medium without FBS, to which was added 0.2 μL of Cell ROX® Deep Red and incubated at 37 °C for 30 min After three times washing the cells and suspending them in PBS, the production of ROS in the cells was immediately monitored using flow cytometer Guava easy Cyte, MERCK, NJ, USA).

[9] = system: WI38 (diploid human embryo lung); assay: MTT cytotoxicity, normal cells WI38; format: cell-based; details: mean ± SD, triplicate, read-out: WI38 IC50 (normal cell line)
HuTu-80 cells [10] = assay: Induction of apoptosis, annexin V/propidium iodide flow cytometry; format: cell-based, human; details: IC50/2, 48-h incubation
Procedure: Apoptosis is one of the most significant mechanisms used for screening new anti-cancer agents. The apoptosis-inducing effect was carried out on lead compounds 3a, b, k, j and 4c showing high selectivity against HuTu-80 cells. The studies were carried out by flow cytometry at concentrations IC50/2 and IC50 (Figure 4). […] The percentage of apoptotic cells in early and late phases was slightly changed with increase compound concentration up to IC50.
HuTu 80 cells at 1 × 10^6 cells/well in a final volume of 2 mL were seeded into six-well plates. After 48 h of incubation, various concentrations of compounds 3a,b and 3k were added to wells.
The cells were harvested at 2000 rpm for 5 min and, then, washed twice with ice-cold PBS, followed by resuspension in binding buffer. Next, the samples were incubated with 5 μL of annexin V-Alexa Fluor 647 (Sigma–Aldrich, St. Louis, MO, USA) and 5 μL of propidium iodide for 15 min at room temperature in the dark. Finally, the cells were analyzed by flow cytometry (Guava easy Cyte, MERCK, Rahway, NJ, USA) within 1 h. The experiments were repeated three times.

[11] = Homo sapiens, read-out: IC50 PC3, MTT

Row | SMILES | IC50 ([1]; Homo sapiens, HuTu80, MTT) [µM] | SI HuTu 80 [1] | IC50 ([2]; Homo sapiens, A549, MTT) [µM] | SI A549 [2] | IC50 [3, 11] [µM] | SI PC3 [3] | IC50 ([4]; Homo sapiens, T98G) [µM] | SI T98G [4] | IC50 ([5]; Homo sapiens, MCF7, MTT) [µM] | SI MCF-7 [5] | IC50 ([6]; Homo sapiens, M-HeLa) [µM] | SI M-HeLa [6] | IC50 ([9]; Homo sapiens, WI-38, MTT) [µM] | IC50 ([1]; MTT) [µM] | other results
1 | OC(CCl)C[P+](c1ccccc1)(c1ccccc1)c1ccccc1 (stereo not drawn) [3a, (3-Chloro-2-hydroxypropyl)triphenylphosphonium trifluoromethanesulfonate] | 10.1 ± 0.8 | 4 | 64.4 ± 4.9 | ns | 45 ± 3.6 | ns | 64.3 ± 5.3 | ns | 56.1 ± 4.5 | ns | 66.7 ± 5.5 | ns | 37.5 ± 3.1 | – | % cells with J-aggregate (red, high membrane potential) (HuTu-80 cells [7]; IC50, 48 h): 39.4%; % cells with J-monomer (green, decreased membrane potential) (HuTu-80 cells [7]; IC50, 48 h): 60.6%; % cells with J-aggregate (red, high membrane potential) (HuTu-80 cells [7]; IC50/2, 48 h): 40.7%; % cells with J-monomer (green, decreased membrane potential) (HuTu-80 cells [7]; IC50/2, 48 h): 59.2%; effect on mitochondrial membrane potential (HuTu-80 cells [7]): decrease the mitochondrial membrane potential; CellROX Deep Red fluorescence intensity (ROS production) (HuTu-80 cells [8]; IC50, 48 h): 1500; CellROX Deep Red fluorescence intensity (ROS production) (HuTu-80 cells [8]; IC50/2, 48 h): 1000; apoptosis induction (HuTu-80 cells [10]): actively induce apoptosis
2 | OC(CBr)C[P+](c1ccccc1)(c1ccccc1)c1ccccc1 (stereo not drawn) [3b, (3-Bromo-2-hydroxypropyl)triphenylphosphonium trifluoromethanesulfonate] | 3 ± 0.1 | 5 | > 100 | ns | 23.3 ± 1.9 | ns | 56 ± 4.5 | ns | 34 ± 2.6 | ns | 30.1 ± 2.4 | ns | 13.8 ± 1.1 | – | % cells with J-aggregate (red, high membrane potential) (HuTu-80 cells [7]; IC50, 48 h): 48.1%; % cells with J-monomer (green, decreased membrane potential) (HuTu-80 cells [7]; IC50, 48 h): 51.9%; % cells with J-aggregate (red, high membrane potential) (HuTu-80 cells [7]; IC50/2, 48 h): 54.5%; % cells with J-monomer (green, decreased membrane potential) (HuTu-80 cells [7]; IC50/2, 48 h): 45.5%; effect on mitochondrial membrane potential (HuTu-80 cells [7]): decrease the mitochondrial membrane potential; CellROX Deep Red fluorescence intensity (ROS production) (HuTu-80 cells [8]; IC50, 48 h): 1580; CellROX Deep Red fluorescence intensity (ROS production) (HuTu-80 cells [8]; IC50/2, 48 h): 1200; apoptosis induction (HuTu-80 cells [10]): actively induce apoptosis
3 | OC(CF)C[P+](c1ccccc1)(c1ccccc1)c1ccccc1 (stereo not drawn) [3c, (3-Fluoro-2-hydroxypropyl)triphenylphosphonium trifluoromethanesulfonate] | 19.1 ± 1.6 | 2.5 | > 100 | ns | 53.5 ± 4.2 | ns | 52.1 ± 4.1 | ns | 56.5 ± 4.5 | ns | 90.6 ± 8.6 | ns | 47.3 ± 3.8 | – | –
4 | OC(CI)C[P+](c1ccccc1)(c1ccccc1)c1ccccc1 (stereo not drawn) [3d, (2-Hydroxy-3-iodopropyl)triphenylphosphonium trifluoromethanesulfonate] | 9.4 ± 0.7 | 4 | 74.2 ± 5.6 | ns | 39.1 ± 3.1 | ns | 64 ± 4.8 | ns | 88.6 ± 7.1 | ns | 50 ± 4.3 | ns | 35.2 ± 2.3 | – | –
5 | COCC(O)C[P+](c1ccccc1)(c1ccccc1)c1ccccc1 (stereo not drawn) [3f, (2-Hydroxy-3-methoxypropyl)triphenylphosphonium trifluoromethanesulfonate] | – | 1.5 | – | ns | – | ns | – | ns | – | ns | – | ns | – | 23.6 ± 1.8 | IC50 ([2]; MTT): 39 ± 3 µM; IC50 ([3]; read-out: IC50 PC3, MTT): 55.2 ± 4.5 µM; IC50 [4]: 60.4 ± 4.4 µM; IC50 ([5]; MTT): 60.7 ± 4.9 µM; IC50 [6]: 56.2 ± 4.7 µM; IC50 ([9]; MTT): 35.6 ± 2.6 µM
6 | CCOCC(O)C[P+](c1ccccc1)(c1ccccc1)c1ccccc1 (stereo not drawn) [3g, (3-Ethoxy-2-hydroxypropyl)triphenylphosphonium trifluoromethanesulfonate] | – | 1.6 | 42.2 ± 3.2 | ns | 48.9 ± 3.9 | ns | 62.9 ± 4.6 | ns | 66.8 ± 5.3 | ns | 63.7 ± 5.2 | ns | 30.1 ± 2.3 | 18.4 ± 1.5 | –
7 | OC(COCC(F)(F)C(F)F)C[P+](c1ccccc1)(c1ccccc1)c1ccccc1 (stereo not drawn) [3h, (2-Hydroxy-3-(2,2,3,3-tetrafluoropropoxy)propyl)triphenylphosphonium trifluoromethanesulfonate] | 28.9 ± 2.1 | ns | 34.3 ± 2.6 | ns | 48.7 ± 3.7 | ns | 63.4 ± 4.8 | ns | 64.4 ± 5 | ns | 100 ± 8.6 | ns | 43.7 ± 3.5 | – | –
8 | C=CCOCC(O)C[P+](c1ccccc1)(c1ccccc1)c1ccccc1 (stereo not drawn) [3i, (3-(Allyloxy)-2-hydroxypropyl)triphenylphosphonium trifluoromethanesulfonate] | – | 5 | – | ns | – | ns | – | ns | – | ns | – | ns | – | 7.1 ± 0.06 | IC50 ([2]; MTT): 41 ± 3.3 µM; IC50 ([3]; read-out: IC50 PC3, MTT): 71.8 ± 6.6 µM; IC50 [4]: 50.4 ± 4 µM; IC50 ([5]; MTT): 70.5 ± 5.6 µM; IC50 [6]: 60.8 ± 5.2 µM; IC50 ([9]; MTT): 34.2 ± 2.7 µM
9 | CCCCCCCCCCCCCCCCCC(=O)OCC(O)C[P+](c1ccccc1)(c1ccccc1)c1ccccc1 (stereo not drawn) [3l, (2-Hydroxy-3-stearoyloxy-propyl)triphenylphosphoniumtrifluoromethanesulfonate] | 45 ± 3.5 | ns | 75.1 ± 5.7 | ns | 53.8 ± 4.4 | ns | 55.9 ± 5 | ns | 52.8 ± 4.2 | ns | 59.2 ± 5.1 | ns | 50 ± 3.9 | – | –
10 | COCC(O)C[P+](c1ccccc1)(c1ccccc1)c1ccccc1 (stereo not drawn) [4a] | 26.7 ± 2.1 | 1.4 | 36 ± 2.8 | ns | 50.3 ± 4 | ns | 55.3 ± 4.4 | ns | 75.7 ± 5.9 | ns | 57.3 ± 4.7 | ns | 36.5 ± 2.8 | – | –
11 | CCOCC(O)C[P+](c1ccccc1)(c1ccccc1)c1ccccc1.[I-] (stereo not drawn) [4b, (3-Ethoxy-2-hydroxypropyl)triphenylphosphonium iodide] | – | 7 | – | ns | – | ns | – | ns | – | ns | – | ns | – | 3.4 ± 0.3 | IC50 ([2]; MTT): 39.1 ± 3.1 µM; IC50 ([3]; read-out: IC50 PC3, MTT): 42.4 ± 3.3 µM; IC50 [4]: 49.7 ± 4 µM; IC50 ([5]; MTT): 60.3 ± 4.7 µM; IC50 [6]: 68.4 ± 5.9 µM; IC50 ([9]; MTT): 22.9 ± 1.9 µM
